Laboratory results: ChEMBL document CHEMBL5465560, “Selectivity Literature for EUbOPEN Chemogenomic Library” (2024)
Values belong to the molecule of their own block, whether it stands above or below them.

Columns and labels:
[1] = target: T1, Mitogen-activated protein kinase 13 (Homo sapiens) (UniProt O15264); assay: Selectivity interaction (SelectScreen profiling (Invitrogen)) EUB0000607a MAPK13; settings: at 2 µM
T1 sequence (whole entry): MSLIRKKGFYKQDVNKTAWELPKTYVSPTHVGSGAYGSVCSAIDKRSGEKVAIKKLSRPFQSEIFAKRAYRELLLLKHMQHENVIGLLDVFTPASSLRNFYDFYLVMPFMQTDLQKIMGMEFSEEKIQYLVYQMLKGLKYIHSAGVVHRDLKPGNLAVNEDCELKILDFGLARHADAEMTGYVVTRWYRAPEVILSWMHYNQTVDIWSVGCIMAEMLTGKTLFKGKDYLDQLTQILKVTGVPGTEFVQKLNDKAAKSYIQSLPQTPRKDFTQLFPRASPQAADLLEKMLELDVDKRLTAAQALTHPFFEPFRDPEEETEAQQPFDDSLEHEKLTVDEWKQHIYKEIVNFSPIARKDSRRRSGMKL

[2] = target: Non-receptor tyrosine-protein kinase TYK2 (Homo sapiens, UniProt P29597); assay: Selectivity interaction (ActivX KiNativ screen (kinase selectivity in THP-1 cell lysates)) EUB0000639a TYK2; assay type: subcellular; settings: lysate
[3] = target: Calcium/calmodulin-dependent protein kinase type II subunit delta (Homo sapiens) (UniProt Q13557); assay: Selectivity interaction (ActivX KiNativ screen (kinase selectivity in THP-1 cell lysates)) EUB0000639a CAMK2D; assay type: subcellular; settings: lysate, at 0.01 µM
[4] = target: MAP/microtubule affinity-regulating kinase 3 (Homo sapiens) (UniProt P27448); assay: Selectivity interaction (KinomeScan (DiscoverX)) EUB0000595a MARK3; settings: at 10 µM
[5] = target: T2, Atypical kinase COQ8B, mitochondrial (Homo sapiens) (UniProt Q96D53); assay: Selectivity interaction (KinomeScan (DiscoverX)) EUB0001049a ADCK4; settings: at 1 µM
T2 sequence (whole entry): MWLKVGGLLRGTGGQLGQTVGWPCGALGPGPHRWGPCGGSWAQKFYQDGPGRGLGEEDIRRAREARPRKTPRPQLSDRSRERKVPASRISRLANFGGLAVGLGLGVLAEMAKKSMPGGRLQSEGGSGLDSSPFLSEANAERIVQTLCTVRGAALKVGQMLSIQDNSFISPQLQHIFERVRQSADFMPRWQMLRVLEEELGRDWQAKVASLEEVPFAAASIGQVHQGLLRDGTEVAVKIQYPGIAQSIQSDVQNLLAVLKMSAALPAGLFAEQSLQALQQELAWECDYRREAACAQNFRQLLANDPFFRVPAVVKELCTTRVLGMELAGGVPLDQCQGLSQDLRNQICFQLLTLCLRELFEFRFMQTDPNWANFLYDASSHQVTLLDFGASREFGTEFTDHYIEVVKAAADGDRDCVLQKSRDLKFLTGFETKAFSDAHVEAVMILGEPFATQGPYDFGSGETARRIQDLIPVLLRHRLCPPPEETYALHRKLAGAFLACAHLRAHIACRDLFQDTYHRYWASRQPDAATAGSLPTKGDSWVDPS

[6] = target: Serine/threonine-protein kinase mTOR (Homo sapiens, UniProt P42345); assay: Selectivity interaction (Kinase panel (KiNativ target engagement assay in Jurkat cells)) EUB0001635a MTOR; assay type: cell-based; settings: Selectivity number of off-targets 0.0, Selectivity number of targets 233.0, Source Knowledge https://www.sciencedirect.com/science/article/pii/S2451945619300674?via%3Dihub, at 1 µM
[7] = target: Myosin light chain kinase 2, skeletal/cardiac muscle (Homo sapiens) (UniProt Q9H1R3); assay: Selectivity interaction (KinomeScan (DiscoverX)) EUB0000229b MYLK2; settings: at 10 µM
[8] = target: T3, Mitogen-activated protein kinase kinase kinase 2 (Homo sapiens) (UniProt Q9Y2U5); assay: Selectivity interaction (ActivX KiNativ screen (ex vivo kinase selectivity in human PBMCs)) EUB0001619a MAP3K2; assay type: cell-based; settings: PBMC, at 1 µM
T3 sequence (whole entry): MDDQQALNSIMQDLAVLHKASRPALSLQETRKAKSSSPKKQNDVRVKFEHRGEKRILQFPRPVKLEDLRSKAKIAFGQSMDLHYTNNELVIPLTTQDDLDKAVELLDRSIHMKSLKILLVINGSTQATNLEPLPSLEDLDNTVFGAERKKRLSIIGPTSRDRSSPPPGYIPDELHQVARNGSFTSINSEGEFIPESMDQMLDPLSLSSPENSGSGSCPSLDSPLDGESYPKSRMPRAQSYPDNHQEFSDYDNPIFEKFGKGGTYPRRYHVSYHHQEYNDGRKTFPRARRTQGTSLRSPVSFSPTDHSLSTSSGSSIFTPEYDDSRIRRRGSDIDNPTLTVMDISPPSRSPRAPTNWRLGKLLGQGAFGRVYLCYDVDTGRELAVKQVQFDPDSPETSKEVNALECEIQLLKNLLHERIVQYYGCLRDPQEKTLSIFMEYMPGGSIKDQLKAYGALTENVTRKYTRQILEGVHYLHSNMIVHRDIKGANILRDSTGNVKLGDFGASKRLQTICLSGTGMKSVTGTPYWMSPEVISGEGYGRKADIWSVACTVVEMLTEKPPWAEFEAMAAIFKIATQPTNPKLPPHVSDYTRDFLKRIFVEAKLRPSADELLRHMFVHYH

Sequence of Non-receptor tyrosine-protein kinase TYK2 (P29597 whole entry): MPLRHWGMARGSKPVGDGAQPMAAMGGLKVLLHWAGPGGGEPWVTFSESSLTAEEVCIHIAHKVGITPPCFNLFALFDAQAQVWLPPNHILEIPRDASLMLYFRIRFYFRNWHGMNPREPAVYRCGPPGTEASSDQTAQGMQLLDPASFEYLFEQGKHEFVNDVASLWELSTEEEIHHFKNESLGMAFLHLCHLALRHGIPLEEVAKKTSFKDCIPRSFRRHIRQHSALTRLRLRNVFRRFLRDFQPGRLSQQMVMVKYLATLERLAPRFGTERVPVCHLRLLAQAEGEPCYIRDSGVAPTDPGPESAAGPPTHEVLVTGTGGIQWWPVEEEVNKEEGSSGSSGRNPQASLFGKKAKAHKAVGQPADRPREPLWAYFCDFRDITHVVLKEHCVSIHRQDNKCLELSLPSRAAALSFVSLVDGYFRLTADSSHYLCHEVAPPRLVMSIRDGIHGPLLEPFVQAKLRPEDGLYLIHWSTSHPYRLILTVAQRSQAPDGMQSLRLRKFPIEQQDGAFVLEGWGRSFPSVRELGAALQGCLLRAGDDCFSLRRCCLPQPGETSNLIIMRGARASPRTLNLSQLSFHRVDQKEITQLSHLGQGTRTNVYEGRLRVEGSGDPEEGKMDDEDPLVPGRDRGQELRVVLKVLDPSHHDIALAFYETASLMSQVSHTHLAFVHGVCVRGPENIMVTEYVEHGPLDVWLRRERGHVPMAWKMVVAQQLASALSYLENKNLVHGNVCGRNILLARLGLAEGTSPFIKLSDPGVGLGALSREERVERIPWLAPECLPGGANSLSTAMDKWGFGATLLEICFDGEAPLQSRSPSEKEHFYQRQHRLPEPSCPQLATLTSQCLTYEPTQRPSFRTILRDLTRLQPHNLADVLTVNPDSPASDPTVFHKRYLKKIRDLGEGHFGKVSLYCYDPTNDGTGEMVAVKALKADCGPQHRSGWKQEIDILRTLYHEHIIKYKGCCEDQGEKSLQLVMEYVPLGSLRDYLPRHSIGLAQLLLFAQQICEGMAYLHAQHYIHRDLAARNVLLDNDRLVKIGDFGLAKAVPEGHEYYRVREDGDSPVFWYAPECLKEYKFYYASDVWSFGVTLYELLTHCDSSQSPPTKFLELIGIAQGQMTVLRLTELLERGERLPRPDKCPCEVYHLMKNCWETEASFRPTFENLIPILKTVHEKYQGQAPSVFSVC
Sequence of Calcium/calmodulin-dependent protein kinase type II subunit delta (Homo sapiens) (Q13557 whole entry): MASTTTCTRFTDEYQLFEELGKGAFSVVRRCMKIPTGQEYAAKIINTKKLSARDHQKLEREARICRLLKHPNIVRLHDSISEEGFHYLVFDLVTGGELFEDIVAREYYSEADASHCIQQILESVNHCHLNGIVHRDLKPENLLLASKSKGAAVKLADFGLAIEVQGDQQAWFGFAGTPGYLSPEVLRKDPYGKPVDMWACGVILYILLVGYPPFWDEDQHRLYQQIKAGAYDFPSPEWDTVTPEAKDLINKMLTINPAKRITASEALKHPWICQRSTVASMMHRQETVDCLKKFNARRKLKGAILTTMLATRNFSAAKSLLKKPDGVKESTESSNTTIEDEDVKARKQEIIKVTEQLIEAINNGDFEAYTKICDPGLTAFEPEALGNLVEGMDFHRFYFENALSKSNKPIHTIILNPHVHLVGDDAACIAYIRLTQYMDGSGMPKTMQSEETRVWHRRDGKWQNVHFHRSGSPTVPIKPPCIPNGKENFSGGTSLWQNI
Sequence of Myosin light chain kinase 2, skeletal/cardiac muscle (Homo sapiens) (Q9H1R3 whole entry): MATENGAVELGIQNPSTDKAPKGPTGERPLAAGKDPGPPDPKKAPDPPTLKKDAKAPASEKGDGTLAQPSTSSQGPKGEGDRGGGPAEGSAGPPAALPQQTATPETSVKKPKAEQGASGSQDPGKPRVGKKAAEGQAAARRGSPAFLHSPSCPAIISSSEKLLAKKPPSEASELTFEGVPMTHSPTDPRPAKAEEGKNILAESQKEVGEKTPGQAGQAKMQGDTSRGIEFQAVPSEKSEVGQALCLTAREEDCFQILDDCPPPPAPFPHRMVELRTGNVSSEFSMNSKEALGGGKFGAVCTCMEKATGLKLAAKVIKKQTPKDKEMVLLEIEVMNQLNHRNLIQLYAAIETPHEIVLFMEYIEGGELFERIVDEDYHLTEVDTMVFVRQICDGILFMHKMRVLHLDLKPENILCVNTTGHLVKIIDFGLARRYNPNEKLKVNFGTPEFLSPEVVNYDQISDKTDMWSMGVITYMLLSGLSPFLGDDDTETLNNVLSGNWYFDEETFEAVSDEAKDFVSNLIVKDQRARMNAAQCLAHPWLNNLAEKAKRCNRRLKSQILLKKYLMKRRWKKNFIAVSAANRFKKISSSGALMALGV
Sequence of MAP/microtubule affinity-regulating kinase 3 (Homo sapiens) (P27448 whole entry, looked up): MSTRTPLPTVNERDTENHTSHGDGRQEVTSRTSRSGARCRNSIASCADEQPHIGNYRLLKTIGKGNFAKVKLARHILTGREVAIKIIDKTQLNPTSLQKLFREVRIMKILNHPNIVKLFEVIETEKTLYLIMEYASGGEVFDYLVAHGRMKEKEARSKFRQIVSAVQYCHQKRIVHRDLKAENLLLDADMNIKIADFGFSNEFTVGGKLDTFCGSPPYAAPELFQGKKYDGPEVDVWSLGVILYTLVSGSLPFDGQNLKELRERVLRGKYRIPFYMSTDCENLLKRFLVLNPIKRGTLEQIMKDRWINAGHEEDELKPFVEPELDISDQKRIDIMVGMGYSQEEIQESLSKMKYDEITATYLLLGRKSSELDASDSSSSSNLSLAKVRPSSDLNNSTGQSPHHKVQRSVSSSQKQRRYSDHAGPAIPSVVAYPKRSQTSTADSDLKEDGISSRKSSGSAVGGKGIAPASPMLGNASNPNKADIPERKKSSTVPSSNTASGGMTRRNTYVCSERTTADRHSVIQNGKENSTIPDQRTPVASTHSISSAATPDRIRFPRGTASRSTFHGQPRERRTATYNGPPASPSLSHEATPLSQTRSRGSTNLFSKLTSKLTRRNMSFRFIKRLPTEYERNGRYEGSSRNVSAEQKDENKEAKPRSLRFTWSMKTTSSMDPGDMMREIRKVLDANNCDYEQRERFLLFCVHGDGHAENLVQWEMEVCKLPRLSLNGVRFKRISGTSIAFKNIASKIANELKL

SMILES: CNC(=O)Nc1ccc(-c2nc(N3CC4CCC(C3)O4)c3cnn(C4CCC5(CC4)OCCO5)c3n2)cc1
% of inhibition [1]: 4%

% of inhibition ([2]; at 0.01 µM): 1.5%
% of inhibition ([2]; at 0.04 µM): 4%
% of inhibition ([2]; at 0.2 µM): 2.3%
% of inhibition ([2]; at 1 µM): 12.6%
% of inhibition ([2]; at 5 µM): 19.4%
% of inhibition [3]: 3.3%
SMILES: CC[C@@H]1[C@H](F)C(=O)N[C@@H]1COc1nccc2cc(C(N)=O)c(OC)cc12 [ZIMLOVISERTIB]

SMILES: COCC(=O)NC/C=C/c1ccc2ncnc(Nc3ccc(Oc4ccc(C)nc4)c(C)c3)c2c1 [CP-724714]
% of control [4]: 100%

SMILES: COc1cc(Nc2nc(C)cc(-c3cnn4nc(OC)ccc34)n2)cc(C(F)(F)F)c1
% of control [5]: 79%

SMILES: C=CC(=O)Nc1ccc(C(=O)Nc2[nH]nc3c2CN(C(=O)N[C@H](CN(C)C)c2ccccc2)C3(C)C)cc1
% of engagement [6]: -11.9%

SMILES: COc1cc(N(C)c2ccnc3ccc(C(F)(F)F)cc23)cc(OC)c1OC
% binding [7]: 75%

SMILES: N#Cc1cccc(-c2c[nH]c3ncnc(N4CCOCC4)c23)c1
% of inhibition [8]: 13%
